Data taken from article PMC7500870 (Biochemistry, 2020).

Target: Cj1427 (Campylobacter jejuni, UniProt Q0P8I7)
Experiment: stopped-flow NADH fluorescence, single turnover, global fit by simulation
Type: binding

Sequence of Cj1427 (Q0P8I7 whole entry): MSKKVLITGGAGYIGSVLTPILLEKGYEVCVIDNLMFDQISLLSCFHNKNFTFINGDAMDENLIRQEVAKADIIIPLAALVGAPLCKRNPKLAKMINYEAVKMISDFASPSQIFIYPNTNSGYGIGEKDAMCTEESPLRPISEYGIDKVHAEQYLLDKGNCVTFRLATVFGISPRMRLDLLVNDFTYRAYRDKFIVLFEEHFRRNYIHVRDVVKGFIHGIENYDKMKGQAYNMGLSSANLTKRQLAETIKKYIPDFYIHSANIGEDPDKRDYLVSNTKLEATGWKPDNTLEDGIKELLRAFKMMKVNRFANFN

O=C(O)CCC(=O)C(=O)O [α-ketoglutarate]
Kd: 165 µM
